These results are taken from patent publication US8124111B2, “Immunomodulation by altering sphingosine 1-phosphate lyase (SPL) activity” (Children's Hospital & Research Center at Oakland, priority 2005, dated 2012).

The target in data set [1] is T1, SPL (Homo sapiens, UniProt O95470).
T1 sequence (O95470 1-568): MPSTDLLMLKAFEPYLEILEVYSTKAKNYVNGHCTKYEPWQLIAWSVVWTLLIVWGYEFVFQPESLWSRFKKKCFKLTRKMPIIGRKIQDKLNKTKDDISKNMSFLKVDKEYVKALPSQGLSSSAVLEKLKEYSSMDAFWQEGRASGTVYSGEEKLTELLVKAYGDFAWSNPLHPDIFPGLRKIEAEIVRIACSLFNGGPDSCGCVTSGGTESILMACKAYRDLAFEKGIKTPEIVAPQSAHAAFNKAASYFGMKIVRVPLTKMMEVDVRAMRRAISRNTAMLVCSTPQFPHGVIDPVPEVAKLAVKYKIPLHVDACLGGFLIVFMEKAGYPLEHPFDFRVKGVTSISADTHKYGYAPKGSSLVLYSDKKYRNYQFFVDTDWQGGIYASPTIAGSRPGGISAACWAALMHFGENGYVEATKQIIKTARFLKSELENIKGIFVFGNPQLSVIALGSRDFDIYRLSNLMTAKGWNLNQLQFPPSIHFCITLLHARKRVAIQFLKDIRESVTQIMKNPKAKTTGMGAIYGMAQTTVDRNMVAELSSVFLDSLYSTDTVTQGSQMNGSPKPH
The conditions noted are these: cited from earlier work.

Data set [2] addresses T1, SPL. Kind of data set: FTY720-P metabolism: stability in the presence of SPL, recovery quantified by HPLC. The format is biochemical. The settings on record: for stability in the presence of SPL (amount recovered by HPLC): incubated 0-24 hours with extracts of HEK293 cells overexpressing human SPL, standard SPL reaction conditions. Also noted: expressed in transfected cells; host or cells: HEK293 infected with adenoviral vector. As to the method:
(A) Twenty nanomoles of FTY720-P were incubated with SPL enzyme for 0-24 hours under standard SPL reaction conditions in the absence of dihydrosphingosine 1-phosphate substrate. At the indicated times the reaction was stopped, and FTY720-P was recovered and quantified by HPLC. (B) Twenty nanomoles of S1P were incubated with extracts from cells overexpressing SPL for 0-24 hours, or alternatively, with extracts from cells containing pcDNA3.0 vector control which had no appreciable SPL activity (PC) for 2 hours. S1P was recovered and quantified by HPLC.
FTY720-P metabolism: Whole cell extracts of HEK293 cells stably overexpressing human SPL were prepared as previously described (Reiss et al., (2004) J Biol Chem 279, 1281-1290). These extracts contained approximately 700 picomoles/mg protein/minute of SPL activity. Twenty nanomoles FTY720-P were suspended in SPL reaction buffer (Van Veldhoven et al., (1991) J Biol Chem 266, 12502-12507), and 25 microliters of whole cell extract were added to initiate the reaction. At various time points, reaction was stopped by addition of a 2 ml mixture of chloroform and methanol (2:1 v/v), 1 ml of 1M KCl, 0.1 ml concentrated HCl. Sample was mixed by vortexing and centrifuged at 1200 rpm for 5 min. […] After derivatization with OPA, the sample was injected onto the HPLC for quantification. The HPLC analysis was conducted using a Beckman (Torrance, Calif., USA) system Gold 125 solvent module with a Spectra-Physics SP8410 fluorescence detector and a C18 (2) Luna 3 μm, 75×4.6 mm column from Phenomenex (CA). […] Recovery of S1P was determined by HPLC quantitation, as described below for S1P measurements in mouse tissues.
Confirmation of FTY720-P by LCMS: Samples corresponding to FTY720-P peak identified on HPLC were evaluated by LCMS to confirm FTY720-P by mass analysis. Twenty microliters of sample were injected into the LCMS and mass spectrum scans from 300 to 500 m/z and specific ions m/Z 388 and 410 were quantified for FTY720-P. A reverse phase C18 column from Phenomenex (2.1 mm×15 cm) was used. […]

Data set [3] concerns human SPL luciferase reporter construct. Kind of data set: SPL gene expression, human SPL luciferase reporter in HEK293 cells. The format is cell-based. The settings on record: 0.3 μM or 3.0 μM, 24 hours. The procedure: (A) SPL gene expression. HEK293 cells were co-transfected with a human SPL luciferase reporter construct and the sea pansy luciferase reporter as a control for transfection efficiency. Twenty-four hours after transfection, cells were treated with 0.3 μM FTY720, 3.0 μM FTY720 or vehicle and incubated for another 24 hours at 37° C. Luciferase activity was then determined as a measure of expression, as described in Experimental Methods. Values shown are luciferase activity normalized to sea pansy luciferase; (B) SPL protein expression. Thymic extracts from control mice (time 0) and mice treated with FTY720 for 24 hours were evaluated for SPL protein expression by immunoblotting. Actin was used as a loading control.
SPL expression: To evaluate the effect of FTY720 and FTY720-P on SPL gene expression, HEK293 cells were treated for 30 minutes with 3 μM of either drug, followed by transfection with pSPL-BamHI, a human SPL-luciferase reporter construct. After 48 hours, reporter expression was determined by luciferase activity as described (Oskouian et al., (2005) J Biol Chem 280, 18403-18410)). Western blotting of mouse tissue extracts was performed using a 1:2000 dilution of polyclonal sera raised against the murine SPL C-terminal peptide: (NH2)—V-T-Q-G-N-Q-M-N-G-S—P—K—P—R—(COOH). [SEQ ID NO:11] […]
In general terms: In a reporter assay the amount or activity of a reporter protein is the signal.

In data set [4] the target is T1, SPL. Kind of data set: Inhibition of SPL activity in vitro (whole cell extracts of HEK293 cells with human SPL adenoviral construct). It is filed as biochemical. Also noted: expressed in transfected cells; host or cells: HEK293 infected with adenoviral vector. The procedure: Various concentrations of FTY720 or its phosphorylated derivative (FTY720P) were incubated for 30 minutes on ice with whole cell extracts containing high SPL activity by virtue of a human SPL adenoviral expression construct. SPL activity was determined. (A) FTY720; (B) FTY720-P.
SPL enzyme assay: Tissues were homogenized by sonication in 9 volumes of ice-cold homogenization buffer (5 mM MOPS pH 7.5, 1 mM DTT, 1 mM EDTA, 0.25 M sucrose, and 5 micrograms/ml each chymostatin, leupeptin, pepstatin A and antipain). SPL assays were conducted using 50 micrograms protein per assay and radioactive [4,5 ^3H]DHS1P substrate, as described previously (Reiss et al., (2004) J Biol Chem 279, 1281-1290). For in vitro FTY720 and FTY720-P experiments, drug was incubated with whole cell extracts prepared from HEK293 cells infected with an adenoviral vector expressing human SPL. These extracts contained approximately 200 picomoles/mg protein/minute SPL activity. Drug was incubated with extracts for 30 minutes, followed by addition of extracts to reaction buffer and substrate to initiate the reaction.
Although treatment with FTY720 was associated with low (nanomolar) circulating drug levels, it was possible that local concentrations within cells and subcellular compartments may have been considerably higher, since FTY720 has been reported to be actively transported into cells by the actions of drug transporters that recognize long chain bases (Honig et al., (2003) J Clin Invest 111, 627-637).

For data set [5], the system named is C3H murine splenocytes and thymocytes.
Method: Cellular Immune Functions—Mitogen Induced Lymphoproliferation: Spleen and thymus tissues were harvested from wild type C3H mice, and cell suspensions were prepared as described previously (Mishell et al., (1980) in Selected Methods in Cellular Immunology (Mishell, B., and Shiigi, S., eds), pp. 3-27, WH Freeman and Company, San Francisco). Cells were dispersed in sterile medium in 96 well microtiter plates (Falcon) at a concentration of 1×10^6 cells/ml for spleen and 5×10^6 cells/ml for thymus. […] Cell proliferation was determined after 48 and 72 hours using the Cell Titer 96 Non-Radioactive Cell Proliferation Assay from Promega (Mannheim, Germany), according to the manufacturer's instructions.

For the compound `CCCCCCCCCCCCCCCC(=O)N[C@@H](CO)[C@H](O)C1=C(CCCCCCCCCCCCC)C1` [C16-cyclopropenylceramide], in data set [1], the “altering SPL activity” value was “capable of altering SPL activity”.
For `CCCCCCCCc1ccc(CC[C@](N)(CO)COP(=O)(O)O)cc1` [FTY720-P], in data set [2], the “stability in the presence of SPL (amount recovered by HPLC)” value is on record as “remained stable for up to 24 hours”. In data set [2] (standard conditions), the “substrate for SPL” value is on record as “did not serve as a substrate for SPL”. In data set [3], the “SPL gene expression (luciferase activity normalized to sea pansy luciferase)” value was “not affected”. Besides, the “dose dependence of SPL inhibition in vitro” value in data set [4] is reported as “not dose-dependent”. Besides, the “only concentration that was inhibitory to SPL activity in vitro” value in data set [4] (30 minutes incubation with extracts) came to 30 µM.
In the case of `CCCCCCCCCCCCCC1=C([C@@H](O)[C@H](CO)NC(=O)CCCCCCC)C1` [GT11, C8-cyclopropenylceramide], the “altering SPL activity” value in data set [1] was “capable of altering SPL activity”. The “non-specific cytotoxic effects (light microscopy)” value in data set [5] was “negligible”. Besides, the LPS-stimulated lymphoproliferation result in data set [5] (two different dosages, 24 hours preincubation, 1 or 10 μg/ml LPS, read after 48 and 72 hours) is recorded as “reduced”.
Take `CCCCCCCCCCCCC/C=C/[C@@H](O)[C@@H](N)COP(=O)(O)O` [S1P, Sphingosine-1-phosphate]: the “stability in the presence of SPL (amount recovered by HPLC)” value in data set [2] is recorded as “diminished”.
As for `Cc1ncc(CO)c(C)c1O` [deoxypyridoxine], the “altering SPL activity” value in data set [1] is given as “capable of altering SPL activity”.
